Measurements: US20240409536A1, “COMPOUNDS AND METHODS FOR MODULATING SPLICING” (REMIX THERAPEUTICS INC., priority 2021, published 2024)

What was measured:
HTT mRNA = assay: Gene panel canonical junction qPCR assay, HTT CJ mRNA decrease; type: cell-based, human; conditions: Homo sapiens, canonical junction qPCR, read-out: HTT IC50 (decrease in CJ mRNA levels)
Procedure, shortened: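 A673 or K562 cells were treated with compound, and lysates underwent cDNA synthesis and qPCR with a CY5 5′-nuclease probe or primer spanning the canonical exon junction. ΔCt versus GAPDH, GUSB or PPIA was normalized to DMSO (2^(−ΔΔCt)), converted to percentage response and fitted four-parameter logistic for IC50.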

HiBiT-tagged MYB protein = assay: HiBiT protein abundance assay, MYB (K562 HiBiT knock-in cells); type: cell-based, human; conditions: 24 hours
Procedure, shortened: (§1)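 K562 cells with endogenous HiBiT knock-in tag, 10-point 3-fold dilutions (top 10 μM final, ≤0.25% DMSO), 24 h at 37 °C. Lytic Nano-Glo HiBiT luminescence, normalized to DMSO and unmodified K562 baselines; IC50 is concentration giving 50% protein abundance from four-parameter fit.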

HiBiT-tagged HTT protein = assay: HiBiT protein abundance assay, HTT (K562 HiBiT knock-in cells); type: cell-based, human; conditions: 24 hours
Procedure, shortened: as §1

K562 cells = assay: Cell Titer Glo 2.0 cell viability assay in K562 cells; conditions: 72 hours
Procedure: Compounds described herein were screened for toxicity in K562 (human chronic myelogenous leukemia) and SH-SY5Y (human neuroblastoma) cells using a Cell Titer Glo 2.0 assay.
Cells were plated at 500 cells/well (K562 cells) in 45 μL of IMDM supplemented with 10% FBS in a 384-well opaque plate. Wells containing only medium were used as a blank control. Test compounds (e.g., compounds of Formula (I), (II), or (III)) were first serially diluted in DMSO then diluted 1:100 with IMDM+10% FBS. The final concentration of DMSO was 0.1% in each well. The cells were incubated for 72 hours at 37° C. and 5% CO2 before assaying with Cell Titer Glo 2.0 reagent.

| IC50 (HTT mRNA) | IC50 (HiBiT-tagged MYB protein) | IC50 (HiBiT-tagged HTT protein) | Compound | Viability (K562 cells) |
| --- | --- | --- | --- | --- |
| 0.1 to 1 µM | < 100 nM | 100 to 1000 nM | CCNC1CCN(c2ccc(C(=O)Nc3cc(F)c4nc(C)cn4c3)c3nc(C)ccc23)CC1 [Compound 228, 5-[4-(ethylamino)piperidin-1-yl]-N-{8-fluoro-2-methylimidazo[1,2-a]pyridin-6-yl}-2-methylquinoline-8-carboxamide] | A (A represents <100 nM) |
| 1 to 10 µM | 1000 to 10000 nM | 1000 to 10000 nM | Cc1cn2cc(NC(=O)c3ccc(N4CCC(NC(C)(C)C)C4)c4ccnnc34)cc(F)c2n1 (stereo not drawn) [Compound 109] | – |
| 1 to 10 µM | < 100 nM | 1000 to 10000 nM | CCNC1CCN(c2ccc(C(=O)Nc3cc(F)c4nc(C)cn4c3)c3nc(OCCOC)ccc23)CC1 [Compound 233, 5-[4-(ethylamino)piperidin-1-yl]-N-{8-fluoro-2-methylimidazo[1,2-a]pyridin-6-yl}-2-(2-methoxyethoxy)quinoline-8-carboxamide] | A (A represents <100 nM) |
| 1 to 10 µM | > 10000 nM | > 10000 nM | Cc1cn2cc(NCc3ccc(N4CCNCC4)c4ccnnc34)cc(F)c2n1 [Compound 230, 8-fluoro-2-methyl-N-{[5-(piperazin-1-yl)cinnolin-8-yl]methyl}imidazo[1,2-a]pyridin-6-amine] | D (D represents greater than 10 μM in K562 cells) |
| > 10 µM | < 100 nM | > 10000 nM | COCCOc1ccc2c(N3CCC(N(C)C)CC3)ccc(C(=O)Nc3cc(F)c4nc(C)cn4c3)c2n1 [Compound 229, 5-[4-(dimethylamino)piperidin-1-yl]-N-{8-fluoro-2-methylimidazo[1,2-a]pyridin-6-yl}-2-(2-methoxyethoxy)quinoline-8-carboxamide] | A (A represents <100 nM) |
| 1 to 10 µM | < 100 nM | 1000 to 10000 nM | COCCOc1ccc2c(N3C[C@@H](C)N[C@@H](C)C3)ccc(C(=O)Nc3cc(F)c4nc(C)cn4c3)c2n1 [Compound 232, 5-[(3R,5S)-3,5-dimethylpiperazin-1-yl]-N-{8-fluoro-2-methylimidazo[1,2-a]pyridin-6-yl}-2-(2-methoxyethoxy)quinoline-8-carboxamide] | – |
| > 10 µM | 100 to 1000 nM | 1000 to 10000 nM | CNC1CCN(c2ccc(C(=O)Nc3cc(F)c4nc(C)cn4c3)c3ncc(OC)nc23)C1 (stereo in doubt) [Compound 227, (R)—N-(8-fluoro-2-methylimidazo[1,2-a]pyridin-6-yl)-2-methoxy-8-(3-(methylamino)pyrrolidin-1-yl)quinoxaline-5-carboxamide 2,2,2-trifluoroacetate] | A (A represents <100 nM) |
| 1 to 10 µM | < 100 nM | 1000 to 10000 nM | CNC1CCN(c2ccc(C(=O)Nc3cc(F)c4nc(C)cn4c3)c3nnccc23)C1 (stereo not drawn) [Compound 231, N-{8-fluoro-2-methylimidazo[1,2-a]pyridin-6-yl}-5-[3-(methylamino)pyrrolidin-1-yl] cinnoline-8-carboxamide] | B (B represents 100-1000 nM) |
| – | < 100 nM | 100 to 1000 nM | Cc1cnc2c(C(=O)Nc3cc(F)c4nc(C)cn4c3)ccc(N3C[C@@H](C)N[C@@H](C)C3)c2n1 [Compound 217, 8-((3R,5S)-3,5-dimethylpiperazin-1-yl)-N-{8-fluoro-2-methylimidazo[1,2-a]pyridin-6-yl}-2-methylquinoxaline-5-carboxamide] | B (B represents 100-1000 nM) |
